18 compounds from patent publication US20220104493A1, “HERBICIDAL COMPOUNDS” (SYNGENTA CROP PROTECTION AG, priority 2019, published 2022) can be followed below.

Common to all, as to assay: Post-emergence efficacy, Method A
Assay type in all cases: in vivo

Assay [1] has as its system Setaria faberi (SETFA). The note with it: 500 g/Ha, 100=total damage to plant, 0=no damage, evaluated after 7 and 14 days, read-out: Control of weed species after post-emergence application, SETFA.
Assay [2] has as its system Eleusine indica (ELEIN). The note with it: 500 g/Ha, 100=total damage to plant, 0=no damage, evaluated after 7 and 14 days, read-out: Control of weed species after post-emergence application, ELEIN.
Assay [3] relates to Amaranthus palmeri (AMAPA). The following applies: 500 g/Ha, 100=total damage to plant, 0=no damage, evaluated after 7 and 14 days, read-out: Control of weed species after post-emergence application, AMAPA.
Assay [4] has as its system Ipomoea hederacea (IPOHE). The note with it: 500 g/Ha, 100=total damage to plant, 0=no damage, evaluated after 7 and 14 days, read-out: Control of weed species after post-emergence application, IPOHE.
Assay [5] deals with Echinochloa crus-galli (ECHCG). The following applies: 500 g/Ha, 100=total damage to plant, 0=no damage, evaluated after 7 and 14 days, read-out: Control of weed species after post-emergence application, ECHCG.
The subject of assay [6] is Lolium perenne (LOLPE). The note with it: 500 g/Ha, 100=total damage to plant, 0=no damage, evaluated after 7 and 14 days, read-out: Control of weed species after post-emergence application, LOLPE.
For assay [7], the system named is Chenopodium album (CHEAL). The note with it: 500 g/Ha, 100=total damage to plant, 0=no damage, evaluated after 7 and 14 days, read-out: Control of weed species after post-emergence application, CHEAL.
For assay [8], the system named is Digitaria sanguinalis (DIGSA). The following applies: 500 g/Ha, 100=total damage to plant, 0=no damage, evaluated after 7 and 14 days, read-out: Control of weed species after post-emergence application, DIGSA.
Assay [9] concerns Euphorbia heterophylla (EPHHL). The following applies: 500 g/Ha, 100=total damage to plant, 0=no damage, evaluated after 7 and 14 days, read-out: Control of weed species after post-emergence application, EPHHL.

Take `O=S(=O)([O-])C[n+]1ccc(-c2cnns2)cc1` [Compound A3, [4-(thiadiazol-5-yl)pyridin-1-ium-1-yl]methanesulfonate]: the pest or weed control at 500 g/ha in [1] was found to be 80%; in assay [2] it was 50%; in assay [3] it was 100%; in [4], 80%; in assay [5], 40%; in assay [6] it was 20%. Also, the pest or weed control at 500 g/ha worked out at 90% in assay [7], 70% in assay [8] and 80% in assay [9].
`O=S(=O)([O-])CC[n+]1ccc(-c2ncns2)cc1` [Compound A5, 2-[4-(1,2,4-thiadiazol-5-yl)pyridin-1-ium-1-yl]ethanesulfonate]: the pest or weed control at 500 g/ha in [1] turned out to be 60%; in assay [2] it was 80%; in [3] it was 100%; in [4] it was 70%; in assay [5], 40%; in assay [6], 70%. For the same compound, the pest or weed control at 500 g/ha was found to be 90% in [7], 70% in assay [8] and 100% in [9].
Take `COC(=O)C[n+]1ccc(-c2cnns2)cc1` [Compound A8, methyl 2-[4-(thiadiazol-5-yl)pyridin-1-ium-1-yl]acetate bromide]: the pest or weed control at 500 g/ha in [1] was found to be 30%; in assay [2], 30%; in [4], 10%; in [5] it was 20%; in [6], 0%; in assay [7], 70%. In addition, the pest or weed control at 500 g/ha in assay [8] came to 50%; in assay [9], 60%.
As to `O=C(O)C[n+]1ccc(-c2cnns2)cc1` [Compound A9, 2-[4-(thiadiazol-5-yl)pyridin-1-ium-1-yl]acetic acid chloride], the pest or weed control at 500 g/ha in assay [1] is 0%; in assay [3], 30%; in assay [4], 20%; in assay [6], 0%; in [7] it was 0%; in assay [9], 10%.
For the compound `O=C(O)C[n+]1ccc(-c2nc(C(F)(F)F)cs2)cc1` [Compound A22], the pest or weed control at 500 g/ha turned out to be 0% in assay [1]; 10% in assay [3]; 0% in [4]; 0% in assay [6]; 10% in assay [7]; 40% in assay [9].
In the case of `CC(C(=O)O)[n+]1ccc(-c2ncns2)cc1` (stereo not shown) [Compound A28], the pest or weed control at 500 g/ha in assay [1] was found to be 80%; in assay [3], 100%; in [4] it was 70%; in assay [6], 30%; in assay [7], 80%; in [9] it was 20%.
Regarding `Cn1nnc(-c2cc[n+](CS(=O)(=O)[O-])cc2)n1` [Compound A35], the pest or weed control at 500 g/ha was found to be 30% in [1]; 20% in assay [2]; 70% in [3]; 40% in assay [4]; 40% in assay [5]; 60% in assay [7]. Also, the pest or weed control at 500 g/ha in assay [8] came to 20%; in assay [9] it was 50%.
Consider `O=S(=O)([O-])C[n+]1ccc(-c2nc(C(F)(F)F)co2)cc1` [Compound A43], for which the pest or weed control at 500 g/ha was 20% in assay [1]; 60% in [2]; 40% in [3]; 30% in assay [4]; 60% in [5]; 10% in assay [6]. The results for the pest or weed control at 500 g/ha in [7] and in [8] were 40% and 30%, respectively.
In the case of `O=C(O)C[n+]1ccc(-c2nc(C(F)(F)F)co2)cc1` [Compound A44], the pest or weed control at 500 g/ha in assay [1] came to 0%; in assay [2], 10%; in [3], 30%; in assay [4], 0%; in assay [5], 10%; in assay [6], 10%. For the same compound, the pest or weed control at 500 g/ha in [7] is 10%; in assay [8] it was 20%.
On to `O=C(O)CC[n+]1ccc(-c2nc(C(F)(F)F)co2)cc1` [Compound A45], for which the pest or weed control at 500 g/ha was determined as 0% in assay [1]; 50% in assay [2]; 0% in [3]; 0% in [4]; 10% in [5]; 0% in assay [6]. For the same compound, the pest or weed control at 500 g/ha amounted to 0% in assay [7] and 20% in [8].
On to `CCOC(=O)C[n+]1ccc(-c2nncs2)cc1` [Compound A49], for which the pest or weed control at 500 g/ha amounted to 20% in assay [1]; 20% in assay [2]; 10% in assay [3]; 10% in assay [4]; 10% in assay [5]; 20% in [6]. Also, the pest or weed control at 500 g/ha in assay [7] and in assay [8] was 50% in each case.
For the compound `Cc1noc(-c2cc[n+](CCC(=O)O)cc2)n1` [Compound A50], the pest or weed control at 500 g/ha in assay [1] was 80%; in [2] it was 40%; in [3], 40%; in assay [4] it was 30%; in [5], 20%; in assay [6], 50%. In addition, the pest or weed control at 500 g/ha in assay [7] came to 70%; in assay [8], 90%.
Turning to `CNC(=O)c1nc(-c2cc[n+](CCCS(=O)(=O)[O-])cc2)no1` [Compound A51], the pest or weed control at 500 g/ha in assay [1] turned out to be 30%; in assay [2], 10%; in assay [3], 10%; in assay [4], 10%; in assay [5], 30%; in [6] it was 20%. In addition, the pest or weed control at 500 g/ha in assay [7] is 60%; in [8] it was 50%.
Take `CNC(=O)c1cc(-c2cc[n+](CCCS(=O)(=O)[O-])cc2)on1` [Compound A52]: the pest or weed control at 500 g/ha was 10% in [1]; 10% in assay [2]; 20% in [3]; 10% in assay [4]; 10% in assay [5]; 10% in assay [6]. Also, the values for the pest or weed control at 500 g/ha in assay [7] and in assay [8] were 30% and 20%, respectively.
For `O=S(=O)([O-])C[n+]1ccc(-c2csnn2)cc1` [Compound A54], the pest or weed control at 500 g/ha was determined as 0% in [1]; 20% in assay [2]; 20% in assay [3]; 20% in assay [4]; 0% in assay [5]; 0% in assay [6]. The pest or weed control at 500 g/ha in assay [7] was 20%; in [8] it was 10%.
Take `O=C(O)CC[n+]1ccc(-c2ncns2)c(F)c1` [Compound A55]: the pest or weed control at 500 g/ha in assay [1] was found to be 20%; in [3] it was 50%; in assay [4], 30%; in [6], 30%; in assay [7], 40%; in assay [9], 10%.
For `O=C(O)CC[n+]1ccc(-c2ncns2)c(Cl)c1` [Compound A56], the pest or weed control at 500 g/ha turned out to be 30% in assay [1]; 60% in [3]; 30% in assay [4]; 10% in assay [6]; 30% in [7]; 100% in assay [9].
As for `CS(=O)(=O)c1c[n+](CCC(=O)O)ccc1-c1ncns1` [Compound A93, 3-[3-methylsulfonyl-4-(1,2,4-thiadiazol-5-yl)pyridin-1-ium-1-yl]propanoic acid bromide], the pest or weed control at 500 g/ha in assay [1] was determined as 30%; in assay [2], 30%; in assay [3] it was 60%; in assay [4], 30%; in [5] it was 40%; in [6], 10%. For the same compound, the pest or weed control at 500 g/ha in [7] and in assay [9] was 30% throughout.
